Experimental data from US11702428B2, “Chemical compounds as inhibitors of interleukin-1 activity” (Genentech, Inc., priority 2017, dated 2023).
pIC50: −log10 of the molar value. Read-outs that look alike come from different tables or passages of the source.

Tests used:
[1] = tested on: LPS and nigericin stimulated cells; assay: cells; format: cell-based; settings: Homo sapiens, read-out: CTG protective IC50
Description: Viability of compound treated cells is measured using CellTiter-Glo® assay (Promega, Madison, Wis.) that measures the ATP content of cells which is proportional to the number of live cells within a well. This is a counter-screen to establish that the reduction of IL-1β levels in LPS and nigericin stimulated and compound treated cells is not due to cytotoxicity, but rather through the inhibition of the inflammasome pathway. Compounds inhibiting NRLP3 inflammasome activation ultimately increase the viability of LPS and nigericin stimulated cells by blocking NLRP3 mediated pyroptosis that would otherwise lead to cell lysis.

NLRP3 inflammasome = NLRP3 inflammasome (Homo sapiens, UniProt Q96P20); assay: NLRP3 inflammasome activation assay in PBMCs (LPS priming, nigericin), IL-1β by ELISA; format: cell-based; parameters: Human peripheral blood mononuclear cells (PBMCs); host or cells: primary human PBMCs from healthy donors
Sequence of NLRP3 inflammasome (Q96P20 whole entry): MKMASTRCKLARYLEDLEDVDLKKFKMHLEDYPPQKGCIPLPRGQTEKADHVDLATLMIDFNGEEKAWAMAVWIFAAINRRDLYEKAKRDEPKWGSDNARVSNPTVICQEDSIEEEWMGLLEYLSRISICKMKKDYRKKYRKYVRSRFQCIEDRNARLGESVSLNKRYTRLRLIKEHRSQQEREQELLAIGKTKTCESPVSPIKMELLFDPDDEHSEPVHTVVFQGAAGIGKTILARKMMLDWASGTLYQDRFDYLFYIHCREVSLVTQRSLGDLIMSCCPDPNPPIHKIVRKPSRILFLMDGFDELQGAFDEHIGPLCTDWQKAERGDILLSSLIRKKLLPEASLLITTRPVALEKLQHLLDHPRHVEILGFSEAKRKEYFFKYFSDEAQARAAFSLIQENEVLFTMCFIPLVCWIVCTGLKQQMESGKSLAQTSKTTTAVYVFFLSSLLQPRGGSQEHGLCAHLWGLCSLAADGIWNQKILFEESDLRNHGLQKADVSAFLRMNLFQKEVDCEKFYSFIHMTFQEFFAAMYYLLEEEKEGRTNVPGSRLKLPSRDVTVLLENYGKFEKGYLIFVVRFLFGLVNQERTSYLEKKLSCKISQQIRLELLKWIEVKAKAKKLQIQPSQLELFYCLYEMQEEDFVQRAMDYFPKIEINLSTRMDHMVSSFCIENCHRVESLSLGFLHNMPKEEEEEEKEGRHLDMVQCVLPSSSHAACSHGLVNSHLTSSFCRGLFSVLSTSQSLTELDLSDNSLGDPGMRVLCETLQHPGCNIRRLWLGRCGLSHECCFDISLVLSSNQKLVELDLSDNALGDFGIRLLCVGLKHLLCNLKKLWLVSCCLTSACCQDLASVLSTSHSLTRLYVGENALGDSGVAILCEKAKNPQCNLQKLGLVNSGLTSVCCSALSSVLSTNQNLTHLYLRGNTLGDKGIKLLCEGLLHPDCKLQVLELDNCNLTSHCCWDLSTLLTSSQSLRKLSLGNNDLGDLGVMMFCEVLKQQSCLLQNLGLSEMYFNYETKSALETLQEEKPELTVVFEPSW
Description: Some of the following assays were used to determine the inhibitory activity of the compounds on the NLRP3 inflammasome using a common inflammasome activation stimuli-nigericin.
Human peripheral blood mononuclear cells (PBMCs), consisting of lymphocytes (T, B and NK cells), monocytes and dendritic cells, were freshly isolated from human peripheral blood from healthy donors. Cells were obtained through an IRB approved donor program by iXCells Biotechnologies where all the donors were tested for bacterial and viral infections. Cells were purified from peripheral blood using ficoll gradient centrifugation.
Cells were then stimulated with 10 uM Nigericin (Sigma Aldrich; InvivoGen) for 1.5 h. Plates were centrifuged at 1,500 rpm for 3 minutes to pellet cells and supernatant was transferred into new plates for subsequent experiments.
For ELISA assays cells were seeded into 96-well plates. Post study, supernatants were removed and the levels of mature IL-1β, IL-18 and TNFα (Quantikine ELISA, R&D systems) were measured in cell conditioned media by ELISA according to manufacturer's instructions.

[2] = LPS and nigericin stimulated cells, CellTiter-Glo
[3] = LPS, nigericin, read-out: PBMC IL-1β IC50
[4] = LPS 100 ng/mL 3 h, nigericin 10 uM 1.5 h, read-out: IC50 IL-1β

SMILES | pIC50 [1, 2] | pIC50 (NLRP3 inflammasome; [3]) | also measured
O=C(Nc1c2c(cc3c1CCC3)CCC2)NS(=O)(=O)c1cnn2c1C(F)CCC2 (stereo not drawn) | > 7.00 | 6.00 to 7.00 | –
O=C(Nc1c2c(cc3c1CCC3)CCC2)NS(=O)(=O)c1cc2n(n1)CCNC2=O | – | 6.00 to 7.00 | –
CN1CCn2nc(S(=O)(=O)NC(=O)Nc3c4c(cc5c3CCC5)CCC4)cc2C1=O | – | 5.00 to 6.00 | –
O=C(Nc1c2c(cc3c1CCC3)CCC2)NS(=O)(=O)c1cnn2c1OCC2 | > 7.00 | 6.00 to 7.00 | –
NC1COc2c(S(=O)(=O)NC(=O)Nc3c4c(cc5c3CCC5)CCC4)cnn2C1 (stereo not drawn) | > 7.00 | 6.00 to 7.00 | –
O=C(Nc1c2c(cc3c1CCC3)CCC2)NS(=O)(=O)c1cnn2c1C(F)(F)CCC2 | < 5.00 | 6.00 to 7.00 | –
CC1(C)COc2c(S(=O)(=O)NC(=O)Nc3c4c(c(Cl)c5c3CCC5)CCC4)cnn2C1 | – | 6.00 to 7.00 | –
Cc1ccc(S(=O)(=O)N2CC3(COc4c(S(=O)(=O)NC(=O)Nc5c6c(cc7c5CCC7)CCC6)cnn4C3)C2)cc1 | 6.00 to 7.00 | 5.00 to 6.00 | –
O=C(Nc1c2c(cc3c1CCC3)CCC2)NS(=O)(=O)c1cnn2c1OC[C@@H](O)C2 | > 7.00 | 6.00 to 7.00 | –
CCNC1COc2c(S(=O)(=O)NC(=O)Nc3c4c(cc5c3CCC5)CCC4)cnn2C1 (stereo not drawn) | > 7.00 | > 7.00 | –
CN(C)[C@@H]1COc2c(S(=O)(=O)NC(=O)Nc3c4c(cc5c3CCC5)CCC4)cnn2C1 | – | – | pIC50 [1]: < 5.00
CCOC1COc2c(S(=O)(=O)NC(=O)Nc3c4c(cc5c3CCC5)CCC4)cnn2C1 (stereo not drawn) | > 7.00 | > 7.00 | –
CC(C)OC1COc2c(S(=O)(=O)NC(=O)Nc3c4c(cc5c3CCC5)CCC4)cnn2C1 (stereo not drawn) | > 7.00 | 6.00 to 7.00 | –
C[C@@H]1COc2c(S(=O)(=O)NC(=O)Nc3c4c(cc5c3CCC5)CCC4)cnn2C1 | > 7.00 | > 7.00 | –
CCN[C@@H]1COc2c(S(=O)(=O)NC(=O)Nc3c4c(cc5c3CCC5)CCC4)cnn2C1 | 5.00 to 6.00 | 5.00 to 6.00 | –
CN(CC1COc2c(S(=O)(=O)NC(=O)Nc3c4c(cc5c3CCC5)CCC4)cnn2C1)C(=O)OC(C)(C)C (stereo not drawn) | 6.00 to 7.00 | 6.00 to 7.00 | –
CNCC1COc2c(S(=O)(=O)NC(=O)Nc3c4c(cc5c3CCC5)CCC4)cnn2C1 (stereo not drawn) | 5.00 to 6.00 | 5.00 to 6.00 | –
CN(C)CC1COc2c(S(=O)(=O)NC(=O)Nc3c4c(cc5c3CCC5)CCC4)cnn2C1 (stereo not drawn) | – | – | pIC50 [1]: 5.00 to 6.00
COC1(C)COc2c(S(=O)(=O)NC(=O)Nc3c4c(cc5c3CCC5)CCC4)cnn2C1 (stereo not drawn) | 6.00 to 7.00 | 6.00 to 7.00 | –
CC[C@@H]1COc2c(S(=O)(=O)NC(=O)Nc3c4c(cc5c3CCC5)CCC4)cnn2C1 | 6.00 to 7.00 | 6.00 to 7.00 | –
CC[C@H]1COc2c(S(=O)(=O)NC(=O)Nc3c4c(cc5c3CCC5)CCC4)cnn2C1 | > 7.00 | > 7.00 | –

SMILES | pIC50 [1, 2] | pIC50 (NLRP3 inflammasome; [3]) | also measured
CC(C)c1cc(C#N)cc(C(C)C)c1NC(=O)NS(=O)(=O)c1cnn2c1OCCC2 | > 7.00 | 6.00 to 7.00 | –
O=C(Nc1c2c(cc3c1CCC3)CCC2)NS(=O)(=O)c1cnn2c1OCC(N1CC(F)C1)C2 (stereo not drawn) | > 7.00 | 6.00 to 7.00 | –
CN1CCn2ncc(S(=O)(=O)NC(=O)Nc3c4c(cc5c3CCC5)CCC4)c2C1=O | – | – | pIC50 [1]: 5.00 to 6.00
CC1(O)COc2c(S(=O)(=O)NC(=O)Nc3c4c(cc5c3CCC5)CCC4)cnn2C1 (stereo not drawn) | > 7.00 | 6.00 to 7.00 | –
CO[C@H]1COc2c(S(=O)(=O)NC(=O)Nc3c(C(C)C)cc(Cl)cc3C(C)C)cnn2C1 | 6.00 to 7.00 | 6.00 to 7.00 | –
CN[C@@H]1COc2c(S(=O)(=O)NC(=O)Nc3c4c(cc5c3CCC5)CCC4)cnn2C1 | – | – | pIC50 [1]: 6.00 to 7.00
O=C(Nc1c(C2CC2)cc(Cl)cc1C1CC1)NS(=O)(=O)c1cnn2c1OCCC2 | 6.00 to 7.00 | 6.00 to 7.00 | –
COc1ccc2cccnc2c1NC(=O)NS(=O)(=O)c1cnn2c1OCCC2 | – | – | PBMC IL-1β IC50 (NLRP3 inflammasome; LPS, nigericin): No Curve
COC1CN(C2COc3c(S(=O)(=O)NC(=O)Nc4c5c(cc6c4CCC6)CCC5)cnn3C2)C1 (stereo not drawn) | – | – | pIC50 [1]: > 7.00
O=C(Nc1cc(C2CC2)cc(C2CC2)c1)NS(=O)(=O)c1cnn2c1OCCC2 | > 7.00 | 6.00 to 7.00 | –
C#CCOC1COc2c(S(=O)(=O)NC(=O)Nc3c4c(cc5c3CCC5)CCC4)cnn2C1 (stereo not drawn) | > 7.00 | > 7.00 | –
CC1(C)Cc2cccc(NC(=O)NS(=O)(=O)c3cnn4c3OCCC4)c2O1 | – | < 5.00 | –
O=C(Nc1c2c(c(F)c3c1CCC3)CCC2)NS(=O)(=O)c1cnn2c1OCCC2 | > 7.00 | > 7.00 | –
COC1CN([C@@H]2COc3c(S(=O)(=O)NC(=O)Nc4c5c(cc6c4CCC6)CCC5)cnn3C2)C1 | – | – | pIC50 [1]: > 7.00
Cc1nn2c(c1S(=O)(=O)NC(=O)Nc1c3c(cc4c1CCC4)CCC3)OCCC2 | > 7.00 | 6.00 to 7.00 | –
O=C(Nc1c(C2CC2)cc(Cl)c2c1CCC2)NS(=O)(=O)c1cnn2c1OCCC2 | 5.00 to 6.00 | 6.00 to 7.00 | –
CC(=O)NCC1COc2c(S(=O)(=O)NC(=O)Nc3c4c(cc5c3CCC5)CCC4)cnn2C1 (stereo not drawn) | > 7.00 | > 7.00 | –
CO[C@H]1COc2c(S(=O)(=O)NC(=O)Nc3c4c(c(F)c5c3CCC5)CCC4)cnn2C1 | – | > 7.00 | –
CO[C@H]1COc2c(S(=O)(=O)NC(=O)Nc3c(C(C)C)cc(F)cc3C(C)C)cnn2C1 | > 7.00 | > 7.00 | –
CN[C@H]1COc2c(S(=O)(=O)NC(=O)Nc3c(C(C)C)cc(F)cc3C(C)C)cnn2C1 | – | > 7.00 | –
O=C(Nc1c2c(cc3c1CCC3)CCC2)NS(=O)(=O)c1cnn2c1OCC(CNC(=O)C(F)(F)F)C2 (stereo not drawn) | – | > 7.00 | –

SMILES | pIC50 [1, 2] | pIC50 (NLRP3 inflammasome; [3]) | also measured
NCC1COc2c(S(=O)(=O)NC(=O)Nc3c4c(cc5c3CCC5)CCC4)cnn2C1 (stereo not drawn) | – | 6.00 to 7.00 | –
CC(C)c1cc(F)cc(C(C)C)c1NC(=O)NS(=O)(=O)c1cnn2c1OCCC2 | 6.00 to 7.00 | 6.00 to 7.00 | –
O=S(=O)(NC(=S)Nc1c2c(cc3c1CCC3)CCC2)c1cnn2c1OCCC2 [drawing 494] | – | – | pIC50 (NLRP3 inflammasome; [4]): 5.00 to 6.00
O=C(Nc1c2c(cc3c1CCC3)CCC2)NS(=O)(=O)c1cnn2c1OCC1(COC1)C2 [drawing 496] | – | – | pIC50 (NLRP3 inflammasome; [4]): 6.00 to 7.00
CC(C)c1cccc(C(C)C)c1NC(=O)NS(=O)(=O)c1cnn2c1OCCC2 [drawing 497] | – | – | pIC50 (NLRP3 inflammasome; [4]): 5.00 to 6.00
CC(C)c1cc(Cl)cc(C(C)C)c1NC(=O)NS(=O)(=O)c1cnn2c1OCCC2 [drawing 498] | – | – | pIC50 (NLRP3 inflammasome; [4]): 6.00 to 7.00
CC1(C)COc2c(S(=O)(=O)NC(=O)Nc3c4c(cc5c3CCC5)CCC4)cnn2C1 [drawing 499] | – | – | pIC50 (NLRP3 inflammasome; [4]): > 7.00
O=C(Nc1c2c(cc3c1CCC3)CCC2)NS(=O)(=O)c1cnn2c1OCC(O)C2 (stereo not drawn) [drawing 500] | – | – | pIC50 (NLRP3 inflammasome; [4]): > 7.00
O=C(Nc1c2c(cc3c1CCC3)CCC2)NS(=O)(=O)c1cnn2c1OCCCC2 [drawing 501] | – | – | pIC50 (NLRP3 inflammasome; [4]): 6.00 to 7.00
CC1CCOc2c(S(=O)(=O)NC(=O)Nc3c4c(cc5c3CCC5)CCC4)cnn21 (stereo not drawn) [drawing 502] | – | – | pIC50 (NLRP3 inflammasome; [4]): 6.00 to 7.00
O=C(Nc1c2c(cc3c1CCC3)CCC2)NS(=O)(=O)c1cnn2c1OCC(F)C2 (stereo not drawn) [drawing 503] | – | – | pIC50 (NLRP3 inflammasome; [4]): 6.00 to 7.00
COC1COc2c(S(=O)(=O)NC(=O)Nc3c4c(cc5c3CCC5)CCC4)cnn2C1 (stereo not drawn) [drawing 504] | – | – | pIC50 (NLRP3 inflammasome; [4]): > 7.00
CC1CCn2ncc(S(=O)(=O)NC(=O)Nc3c4c(cc5c3CCC5)CCC4)c2O1 (stereo not drawn) [drawing 505] | – | – | pIC50 (NLRP3 inflammasome; [4]): > 7.00
O=C(Nc1c2c(c(Cl)c3c1CCC3)CCC2)NS(=O)(=O)c1cnn2c1OCCC2 [drawing 506] | – | – | pIC50 (NLRP3 inflammasome; [4]): > 7.00
O=C(Nc1c2c(cc3c1CCC3)CCC2)NS(=O)(=O)c1cnn2c1OCC1(COC1)C2 [drawing 510] | – | 6.00 to 7.00 | –
CC(C)c1cccc(C(C)C)c1NC(=O)NS(=O)(=O)c1cnn2c1OCCC2 [drawing 511] | – | 5.00 to 6.00 | –
CC(C)c1cc(Cl)cc(C(C)C)c1NC(=O)NS(=O)(=O)c1cnn2c1OCCC2 [drawing 512] | – | 6.00 to 7.00 | –
O=C(Nc1c2c(c(Cl)c3c1CCC3)CCC2)NS(=O)(=O)c1cnn2c1OCCC2 [drawing 520] | – | > 7.00 | –
COC1CN([C@H]2COc3c(S(=O)(=O)NC(=O)Nc4c5c(cc6c4CCC6)CCC5)cnn3C2)C1 [drawing 580] | – | – | pIC50 [1]: > 7.00
